Data from patent US20080051401A1, “2,4,6-Trisubstituted Pyrimidines as Phosphotidylinositol (Pi) 3-Kinase Inhibitors and Their Use in the Treatment of Cancer” (priority 2004, published 2008).

Tests used:
[1] = test system: phosphorylation of Serine 473 in Akt in MDA-MB-468 human breast adenocarcinoma cell line; test: In vitro phospho-Ser473 Akt assay, Test (b); type: cell-based; details: MDA-MB-468 cells, 2 hours incubation, read-out: IC50, inhibition of phosphorylation of Serine 473 in Akt
Procedure: (b) In Vitro Phospho-Ser473 Akt Assay
This assay determines the ability of test compounds to inhibit phosphorylation of Serine 473 in Akt as assessed using Acumen Explorer technology (Acumen Bioscience Limited), a plate reader that can be used to rapidly quantitate features of images generated by laser-scanning.
A MDA-MB-468 human breast adenocarcinoma cell line (LGC Promochem, Teddington, Middlesex, UK, Catalogue No. HTB-132) was routinely maintained at 37° C. with 5% CO2 up to a confluency of 70-90% in Dulbecco's modified Eagle's growth medium (DMEM; Invitrogen Limited, Paisley, UK Catalogue No. 41966-029) containing 10% heat-inactivated foetal calf serum (FCS; Sigma, Poole, Dorset, UK, Catalogue No. F0392) and 1% L-glutamine (Gibco, Catalogue No. 25030-024).
For the assay, the cells were detached from the culture flask using ‘Accutase’ (Innovative Cell Technologies Inc., San Diego, Calif., USA; Catalogue No. AT104) using standard tissue culture methods and resuspended in media to give 1.7×10^5 cells per ml. Aliquots (90 μl) were seeded into each of the inner 60 wells of a black Packard 96 well plate (PerkinElmer, Boston, Mass., USA; Catalogue No. 6005182) to give a density of ˜15000 cells per well. Aliquots (90 μl) of culture media were placed in the outer wells to prevent edge effects. The cells were incubated overnight at 37° C. with 5% CO2 to allow them to adhere.
On day 2, the cells were treated with test compounds and incubated for 2 hours at 37° C. with 5% CO2. Test compounds were prepared as 10mM stock solutions in DMSO and serially diluted as required with growth media to give a range of concentrations that were 10-fold the required final test concentrations. Aliquots (10 μl) of each compound dilution were placed in a well (in triplicate) to give the final required concentrations. […]
All subsequent aspiration and wash steps were carried out using a Tecan 96 well plate washer (aspiration speed 10 mm/sec). […] An aliquot of PBS (50 μl) was added to each well and the plates were sealed with black plate sealers and the fluorescence signal was detected and analysed. […]

p110α Type Ia human PI3K = biological target: T1, p110α Type Ia human PI3K (Homo sapiens, UniProt P42336); test: In vitro enzyme assay (AlphaScreen), Test (a); type: biochemical; details: recombinant enzyme, PI(4,5)P2 substrate, ATP 4 μM, read-out: IC50 versus p110α Type Ia human PI3K
T1 construct: full length DNA of each of the p110α, p110β and p110δ Type Ia human PI3K p110 isoforms; 6-His; made in house
From the text: (a) In Vitro Enzyme Assay
The assay used AlphaScreen technology (Gray et al., Analytical Biochemistry, 2003, 313: 234-245) to determine the ability of test compounds to inhibit phosphorylation by recombinant Type I PI3K enzymes of the lipid PI(4,5)P2.
DNA fragments encoding human PI3K catalytic and regulatory subunits were isolated from cDNA libraries using standard molecular biology and PCR cloning techniques. The selected DNA fragments were used to generate baculovirus expression vectors. In particular, full length DNA of each of the p110α, p110β and p110δ Type Ia human PI3K p110 isoforms (EMBL Accession Nos. HSU79143, S67334, Y10055 for p110α, p110β and p110δ respectively) were sub-cloned into a pDEST10 vector (Invitrogen Limited, Fountain drive, Paisley, UK). The vector is a Gateway-adapted version of Fastbac1 containing a 6-His epitope tag. A truncated form of Type Ib human PI3K p110γ isoform corresponding to amino acid residues 144-1102 (EMBL Accession No. X8336A) and the full length human p85α regulatory subunit (EMBL Accession No. HSP13KIN) were also sub-cloned into pFastBac1 vector containing a 6-His epitope tag. The Type Ia p110 constructs were co-expressed with the p85α regulatory subunit. Following expression in the baculovirus system using standard baculovirus expression techniques, expressed proteins were purified using the His epitope tag using standard purification techniques.
DNA corresponding to amino acids 263 to 380 of human Grp1 PH domain was isolated from a cDNA library using standard molecular biology and PCR cloning techniques. […]
Biotinylated-DiC8-PI(3,4,5)P3 (50 nM; Cell Signals Inc., Catalogue No. 107), recombinant purified GST-Grp1 PH protein (2.5 nM) and AlphaScreen Anti-GST donor and acceptor beads (100 ng; Packard Bioscience Limited, Station Road, Pangbourne, Berkshire, UK, Catalogue No. 6760603M) were added and the assay plates were left for about 5 to 20 hours at ambient temperature in the dark. The resultant signals arising from laser light excitation at 680 nm were read using a Packard AlphaQuest instrument. […]

[2] = test system: MDA-MB-468 human breast adenocarcinoma cell line; test: In vitro MDA-MB-468 human breast adenocarcinoma proliferation assay, Test (c); type: cell-based; details: BrdU incorporation, 48 hours incubation, read-out: IC50, inhibition of MDA-MB-468 cell growth
From the text: (c) In Vitro MDA-MB-468 Human Breast Adenocarcinoma Proliferation Assay
This assay determines the ability of test compounds to inhibit cell proliferation as assessed using Cellomics Arrayscan technology. A MDA-MB-468 human breast adenocarcinoma cell line (LGC Promochem, Catalogue No. HTB-132) was routinely maintained as described in Biological Assay (b) hereinbefore.
For the proliferation assay, the cells were detached from the culture flask using Accutase and seeded into the inner 60 wells of a black Packard 96 well plate at a density of 8000 cells per well in 100 μl of complete growth media. The outer wells contained 100 μl of sterile PBS. The cells were incubated overnight at 37° C. with 5% CO2 to allow them to adhere.
On day 2, the cells were treated with test compounds and incubated for 48 hours at 37° C. with 5% CO2. […]
BrdU incorporation was detected by incubation for 1 hour at ambient temperature with mouse anti-BrdU antibody (50 μl; Caltag, Burlingame, Calif., US; Catalogue No. MD5200) that was diluted 1:40 in PBS containing 1% BSA and 0.05% Tween-20. […] Subsequently, PBS (100 μl) was added to each well and the plates were analysed using a Cellomics array scan to assess total cell number and number of BrdU positive cells.
Fluorescence dose response data obtained with each compound were analysed and the degree of inhibition of MDA-MB-468 cell growth was expressed as an IC50 value.

T1 sequence (P42336 whole entry, canonical isoform): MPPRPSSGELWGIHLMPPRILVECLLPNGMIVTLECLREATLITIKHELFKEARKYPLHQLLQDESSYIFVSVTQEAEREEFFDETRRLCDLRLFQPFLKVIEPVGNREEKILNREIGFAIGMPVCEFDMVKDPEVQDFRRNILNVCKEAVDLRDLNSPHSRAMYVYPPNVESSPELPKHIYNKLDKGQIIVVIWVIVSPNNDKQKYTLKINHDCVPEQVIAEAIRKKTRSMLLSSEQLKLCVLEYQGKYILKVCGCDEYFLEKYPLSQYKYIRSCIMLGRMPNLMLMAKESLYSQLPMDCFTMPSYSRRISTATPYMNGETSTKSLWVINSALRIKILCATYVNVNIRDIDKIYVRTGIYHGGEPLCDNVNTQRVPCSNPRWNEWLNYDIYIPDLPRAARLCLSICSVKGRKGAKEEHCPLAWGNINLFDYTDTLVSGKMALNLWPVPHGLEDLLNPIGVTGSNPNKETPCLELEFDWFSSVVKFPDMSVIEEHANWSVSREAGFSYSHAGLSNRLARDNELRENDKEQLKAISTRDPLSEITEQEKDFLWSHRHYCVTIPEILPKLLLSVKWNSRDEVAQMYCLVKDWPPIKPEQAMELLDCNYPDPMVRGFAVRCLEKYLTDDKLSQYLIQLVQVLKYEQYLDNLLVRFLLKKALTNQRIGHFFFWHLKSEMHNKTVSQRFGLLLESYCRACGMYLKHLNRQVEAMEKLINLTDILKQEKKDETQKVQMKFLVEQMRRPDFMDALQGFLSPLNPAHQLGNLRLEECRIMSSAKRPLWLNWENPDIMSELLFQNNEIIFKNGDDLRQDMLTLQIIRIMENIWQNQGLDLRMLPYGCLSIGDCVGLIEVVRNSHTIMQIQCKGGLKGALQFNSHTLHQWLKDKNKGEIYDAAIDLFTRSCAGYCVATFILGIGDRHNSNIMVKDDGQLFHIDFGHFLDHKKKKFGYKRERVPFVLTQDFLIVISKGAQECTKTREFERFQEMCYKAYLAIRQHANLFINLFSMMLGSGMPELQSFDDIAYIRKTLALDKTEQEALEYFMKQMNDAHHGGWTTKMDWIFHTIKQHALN
T1 sequence (P27986 whole entry partner, canonical isoform): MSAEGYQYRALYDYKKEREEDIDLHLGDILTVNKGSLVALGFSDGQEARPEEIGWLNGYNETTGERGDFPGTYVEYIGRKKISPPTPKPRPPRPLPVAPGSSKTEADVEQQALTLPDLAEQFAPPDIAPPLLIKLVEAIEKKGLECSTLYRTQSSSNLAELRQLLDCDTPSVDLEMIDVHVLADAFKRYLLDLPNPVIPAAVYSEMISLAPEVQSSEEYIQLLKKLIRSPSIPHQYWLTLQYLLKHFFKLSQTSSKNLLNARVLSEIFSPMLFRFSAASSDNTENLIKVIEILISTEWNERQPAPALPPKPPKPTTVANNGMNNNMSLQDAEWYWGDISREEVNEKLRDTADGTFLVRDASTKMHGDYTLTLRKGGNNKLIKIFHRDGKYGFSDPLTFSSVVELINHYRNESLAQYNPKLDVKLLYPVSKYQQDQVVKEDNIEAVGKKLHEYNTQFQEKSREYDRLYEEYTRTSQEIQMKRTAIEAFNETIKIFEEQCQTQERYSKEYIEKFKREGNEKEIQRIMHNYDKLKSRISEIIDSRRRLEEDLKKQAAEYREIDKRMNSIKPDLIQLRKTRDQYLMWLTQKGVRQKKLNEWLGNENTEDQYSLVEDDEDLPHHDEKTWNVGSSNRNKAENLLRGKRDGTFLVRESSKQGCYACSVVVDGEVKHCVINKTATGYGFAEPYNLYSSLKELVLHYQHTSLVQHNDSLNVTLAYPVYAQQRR

Row | IC50 [1] [nM] | IC50 (p110α Type Ia human PI3K) [nM] | IC50 [2] [nM] | SMILES
1 | ~5000 | ~100 | ~8000 | O=C(Nc1cccc(-c2cc(N3CCOCC3)nc(-c3cccc(CO)c3)n2)c1)C1CCNCC1 [Example 1, 2-(3-hydroxymethylphenyl)-6-morpholino-4-(3-piperidin-4-ylcarbonylaminophenyl)pyrimidine]
2 | ~500 | ~300 |  | O=C(Nc1cccc(-c2cc(N3CCOCC3)nc(-c3cccc(CO)c3)n2)c1)N1CCNCC1 [Example 10, 2-(3-hydroxymethylphenyl)-6-morpholino-4-(3-piperazin-1-ylcarbonylaminophenyl)pyrimidine]
3 | ~300 | ~100 |  | O=C(Nc1cccc(-c2cc(N3CCOCC3)nc(-c3cccc(O)c3)n2)c1)C1CCCNC1 (stereo not shown) [Example 6, 2-(3-hydroxyphenyl)-6-morpholino-4-(3-piperidin-3-ylcarbonylaminophenyl)pyrimidine]
